Publication PMC7811808, “Design, synthesis, and biological evaluation of novel 5,6,7-trimethoxy quinolines as potential anticancer agents and tubulin polymerization inhibitors” (Iranian Journal of Basic Medical Sciences, 2020)
Where two headings read alike, the source gives them in different places.

Tests used:
A2780/RCIS = test: MTT antiproliferative activity assay; type: cell-based; details: Homo sapiens, read-out: IC50 A2780/RCIS
Protocol: (§1) The MTT assay was done by seeding 5.0×10^3 human cancer cells or normal cells per well in 96-well plates ([34]-[36]). Following overnight incubation of the cells in 5% CO2 at 37 °C, culture medium of each well was exchanged with medium having reference anti-cancer agent CA-4 as well as different concentrations of synthesized compounds and RPMI (no drug) negative control and cells were incubated 48 hr. Then MTT solution (25 μl, 4 mg ml ^-1) was added to each well and the cells were incubated at 37 °C (for 3 hr). Finally, formazan crystals were dissolved in DMSO (100 μl) and plates were read in a plate reader (Synergy H4, USA) at 540 nm. The cytotoxic activity of the synthesized compounds was evaluated against different human cancer cell lines including […]-7 and MCF-7/MX, and normal cells by MTT assay. Combretastatin A-4 (CA-4) was used as the positive control.

A2780 = test: MTT antiproliferative activity assay; type: cell-based; details: Homo sapiens, 48 hr
Protocol: as §1

MCF-7/MX = test: MTT antiproliferative activity assay; type: cell-based; details: Homo sapiens, MCF7/MX, read-out: IC50 MCF-7/MX
Protocol: as §1

MCF-7 = test: MTT antiproliferative activity assay; type: cell-based; details: Homo sapiens, MCF7, 48 hr
Protocol: as §1

HUVEC = test: MTT assay on normal cells; type: cell-based; details: Homo sapiens, 48 hr
Protocol: as §1

[1] = test system: A2780, A2780/RCIS, MCF-7 and MCF-7/MX; test: MTT assay, statements over all four cancer cell lines; type: cell-based; details: Homo sapiens, range over four cell lines, read-out: IC50 values range against all four human cancer cells
Protocol: as §1

tubulin = biological target: T1, tubulin (Sus scrofa, UniProt P02550+P02554); test: In vitro tubulin polymerization assay (fluorescence kit); type: biochemical; details: compound 20 µM; CA-4 5 µM
T1 construct: purchased cytoskeleton BK011P
T1 sequence (P02550 whole entry): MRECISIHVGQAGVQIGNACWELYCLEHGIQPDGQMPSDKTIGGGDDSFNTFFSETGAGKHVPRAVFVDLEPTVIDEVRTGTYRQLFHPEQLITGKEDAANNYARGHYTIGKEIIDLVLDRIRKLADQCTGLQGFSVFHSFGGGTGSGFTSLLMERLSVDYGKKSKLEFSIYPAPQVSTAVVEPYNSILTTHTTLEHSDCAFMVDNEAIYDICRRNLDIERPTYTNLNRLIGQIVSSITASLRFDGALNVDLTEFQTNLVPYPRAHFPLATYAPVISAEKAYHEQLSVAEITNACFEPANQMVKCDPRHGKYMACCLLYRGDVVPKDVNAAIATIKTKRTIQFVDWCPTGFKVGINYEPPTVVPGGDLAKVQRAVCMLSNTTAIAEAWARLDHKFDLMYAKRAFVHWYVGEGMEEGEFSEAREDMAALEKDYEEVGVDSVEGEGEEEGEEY
T1 sequence (P02554 whole entry): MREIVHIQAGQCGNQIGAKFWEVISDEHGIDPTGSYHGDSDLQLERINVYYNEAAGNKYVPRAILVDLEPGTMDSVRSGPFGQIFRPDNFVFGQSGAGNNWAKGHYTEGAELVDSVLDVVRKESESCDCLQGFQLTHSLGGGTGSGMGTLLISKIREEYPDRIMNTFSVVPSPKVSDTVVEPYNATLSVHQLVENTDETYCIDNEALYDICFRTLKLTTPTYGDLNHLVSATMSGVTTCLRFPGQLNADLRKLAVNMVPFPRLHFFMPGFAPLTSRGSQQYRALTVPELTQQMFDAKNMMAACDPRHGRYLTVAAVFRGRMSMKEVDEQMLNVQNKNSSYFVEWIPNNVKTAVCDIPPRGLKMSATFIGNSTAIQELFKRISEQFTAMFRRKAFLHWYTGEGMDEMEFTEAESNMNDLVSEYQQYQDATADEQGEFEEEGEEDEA
Protocol: A commercial kit (cytoskeleton, cat. #BK011P) was used to evaluate the tubulin polymerization inhibition activity of compounds ([37]). Briefly, tubulin protein was added to tubulin buffer (80 mM PIPES, 2 mM MgCl2, 0.5 mM EGTA, 1 mM GTP, […], PH 6.9) and the acquired mixture was added to wells of a 96-well plate comprising the cytotoxic compounds or vehicle. Tubulin polymerization was observed by detecting the fluorescence augmentation due to the addition of a fluorescence reporter into microtubules as polymerization occurred. Polymerization was measured by excitation at 360 nm and emission at 420 nm for 1 hr at 1 min intervals in a plate reader (Synergy H4, USA). CA-4 (5 μM) and paclitaxel (3 μM) were used as positive destabilizing and positive stabilizing controls, respectively.
In order to check if the cytotoxic activity of our quinolines was correlated to their ability to inhibit tubulin, compounds 7e and 7f and CA4 (polymerization suppressor) and paclitaxel (polymerization promoter) were assessed for their activity in a microtubule polymerization assay.

A2780 cancer cells = test: Cell cycle analysis by flow cytometry (PI); type: cell-based, human; details: 48 hr
Description: (§2) Flow cytometry with propidium iodide (PI) was used to analyze the cell numbers in the cell cycle phases. […] Flowjo software 7.6 was used to analyze the data regarding the cell numbers in different phases of the cell cycle.
(§3) Tubulin inhibitors arrest cell cycle at the G2/M phase in cancer cells owing to destruction of the microtubular cytoskeleton. To get more understanding of the mechanism of action, the effects of compounds 7f and 7e on the cell cycle were examined by ﬂow cytometry in four human cancer cell lines (MCF-7, MCF-7/MX, A2780, and A2780/RCIS). […] When A2780 cancer cells were treated with 7f and 7e for 48 hr, the percentage of cells in the G2/M phase was 15.70% (7f, 1 μM), 17.74% (7f, 10 μM), 23.30% (7e, 5μM), and 4.15% (7e, 15μM) compared with the negative control (4.84%). Moreover, the percentage of A2780 cancer cells in the subG1 phase was 18.58% (7f, 10 μM) and 68.16% (7e, 15 μM).

A2780/RCIS cancer cells = test: Cell cycle analysis by flow cytometry (PI); type: cell-based, human; details: 48 hr
Description: as §2, §3

MCF-7 cancer cells = test: Cell cycle analysis by flow cytometry (PI); type: cell-based, human; details: 48 hr
Description: as §2, §3

MCF-7/MX cancer cells = test: Cell cycle analysis by flow cytometry (PI); type: cell-based, human; details: 48 hr
Description: as §2, §3

A2780 cells = test: Apoptosis assay (Annexin V/PI staining); type: cell-based, human; details: 24 hr
Protocol: A2780 cells ([…]) were seeded in six-well plates and incubated overnight. Then the medium was replaced with a complete medium containing compound 7e (3 and 15 µM concentrations). After 24 hr incubation, the cells were […] and washed with PBS and incubated with buffer including 10 mM HEPES, 140 mM NaCl, and 2.5 mM CaCl2 (pH 7.4) and also PI and annexin V-FITC at room temperature (20 min) ([38]). The samples were analyzed using a flow cytometer (Beckman Coulter), and the results were assessed using the Flowjo software.
Then, to investigate the mode of cell death caused by 7e, flow cytometry was done using propidium iodide (PI) ([19]), which only colors DNA and only enter dead cells, and Annexin-V (the fluorescence probe), which binds to the early apoptotic cells selectively ([20]).

SMILES | IC50 (A2780) [µM] | IC50 (MCF-7) [µM] | IC50 (HUVEC) [µM] | IC50 (A2780/RCIS; A2780, MTT, 48 hr) [µM] | IC50 (MCF-7/MX; MTT, 48 hr) [µM] | melting point [°C] | other results
COc1ccc(/C=C\c2cc(OC)c(OC)c(OC)c2)cc1O [CA-4, Combretastatin A-4, reference compound] | 0.249 ± 0.091 | 0.438 ± 0.15 | 0.565 ± 0.26 | – | – | – | IC50 (A2780/RCIS; A2780, 48 h): 0.229 ± 0.11 µM; IC50 (MCF-7/MX; 48 h): 1.49 ± 0.27 µM
COc1ccc(Nc2cc(C)nc3cc(OC)c(OC)c(OC)c23)cc1 [Compound 7a, 5,6,7-Trimethoxy-N-(4-methoxyphenyl)-2-methylquinolin-4-amine] | 16.4 ± 2.13 | 55.3 ± 5.37 | 55.9 ± 3.87 | 29.9 ± 2.87 | 65.9 ± 4.42 | 191 to 194 | –
COc1ccc(Nc2cc(C)nc3cc(OC)c(OC)c(OC)c23)cc1OC [Compound 7b, N-(3,4-dimethoxyphenyl)-5,6,7-trimethoxy-2-methylquinolin-4-amine] | 27.1 ± 3.25 | 63.7 ± 4.35 | > 100 | 51.5 ± 4.86 | 62.8 ± 5.27 | 182 to 185 | –
COc1cc(Nc2cc(C)nc3cc(OC)c(OC)c(OC)c23)cc(OC)c1OC [Compound 7c, 5,6,7-Trimethoxy - 2-methyl - -N-(3,4,5-methoxyphenyl) quinolin-4-amine] | 80.2 ± 5.23 | > 100 | > 100 | > 100 | 69.8 ± 4.85 | 175 to 178 | –
COc1ccc(Nc2cc(C)nc3cc(OC)c(OC)c(OC)c23)cc1O [Compound 7d, 2-Methoxy-5-((5,6,7-trimethoxy-2-methylquinolin-4-yl)amino)phenol] | 29.6 ± 2.98 | 53.6 ± 3.66 | 62.7 ± 5.42 | 44.7 ± 2.76 | 78.2 ± 5.37 | 182 to 184 | –
COc1cc2nc(C)cc(Nc3ccc(C(=O)c4ccccc4)cc3)c2c(OC)c1OC [Compound 7e] | 11.3 ± 1.47 | 33 ± 2.51 | > 100 | 6.66 ± 1.35 | 10.9 ± 1.28 | – | IC50 [1]: 5.02 to 35.8 µM; tubulin polymerization inhibition (tubulin): inhibited tubulin polymerization in a way similar to that of CA-4; G2/M (A2780 cancer cells; A2780, 5 μM): 23.30%; G2/M (A2780 cancer cells; A2780, 15 μM): 4.15%; SubG1 (A2780 cancer cells; A2780, 15 μM): 68.16%; G2/M (A2780/RCIS cancer cells; 1 μM): 24.91%; G2/M (A2780/RCIS cancer cells; 5 μM): 25.93%; G2/M (MCF-7 cancer cells; MCF-7, 20 μM): 25.91%; G2/M (MCF-7 cancer cells; MCF-7, 30 μM): 34.45%; G2/M (MCF-7/MX cancer cells; 1 μM): 25.41%; G2/M (MCF-7/MX cancer cells; 10 μM): 37.85%; total apoptotic cells including early and late apoptotic cells (A2780 cells; A2780, 3 µM): 8.02%; total apoptotic cells including early and late apoptotic cells (A2780 cells; A2780, 15 µM): 28.57%
COc1cc2nc(C)cc(Nc3ccc(Oc4ccccc4)cc3)c2c(OC)c1OC [Compound 7f, 5,6,7-Trimethoxy-2-methyl-N-(4-phenoxyphenyl)quinolin-4-amine] | 8.43 ± 1.85 | 10.1 ± 1.63 | 8.9 ± 1.26 | 5.02 ± 1.14 | 9.04 ± 1.2 | 192 to 195 | IC50 [1]: 5.02 to 35.8 µM; tubulin polymerization inhibition (tubulin): inhibited tubulin polymerization in a way similar to that of CA-4; G2/M (A2780 cancer cells; A2780, 1 μM): 15.70%; G2/M (A2780 cancer cells; A2780, 10 μM): 17.74%; SubG1 (A2780 cancer cells; A2780, 10 μM): 18.58%; G2/M (A2780/RCIS cancer cells; 1 μM): 20.68%; G2/M (A2780/RCIS cancer cells; 5 μM): 19.38%; G2/M (MCF-7 cancer cells; MCF-7, 1 μM): 19.01%; G2/M (MCF-7 cancer cells; MCF-7, 10 μM): 24.01%; G2/M (MCF-7/MX cancer cells; 10 μM): 23.73%; G2/M (MCF-7/MX cancer cells; 20 μM): 29.37%
COc1cc2nc(C)cc(Nc3ccccc3Oc3ccccc3)c2c(OC)c1OC [Compound 7g, 5,6,7-Trimethoxy-2-methyl-N-(2-phenoxyphenyl)quinolin-4-amine] | 12.1 ± 2.17 | 35.8 ± 3.29 | 27.7 ± 2.63 | 10.1 ± 2.25 | 16.3 ± 2.39 | 150 to 153 | IC50 [1]: 5.02 to 35.8 µM
COc1cc2nc(/C=C/c3ccccc3)cc(Cl)c2c(OC)c1OC [Compound 9a, E-4-Chloro-5,6,7-trimethoxy-2-styrylquinoline] | 30.5 ± 3.22 | 63.7 ± 5.27 | 74 ± 5.95 | 46.2 ± 3.57 | 64.6 ± 5.29 | 110 to 113 | –
COc1cc2nc(/C=C/c3ccc(C)cc3)cc(Cl)c2c(OC)c1OC [Compound 9b, E-4-Chloro-5,6,7-trimethoxy-2-(4-methylstyryl)quinoline] | > 100 | > 100 | > 100 | > 100 | > 100 | 153 to 155 | –
COc1cc2nc(/C=C/c3ccc(F)cc3)cc(Cl)c2c(OC)c1OC [Compound 9c, E-4-Chloro-5,6,7-trimethoxy-2-(4-fluorostyryl)quinoline] | > 100 | > 100 | > 100 | > 100 | > 100 | 173 to 176 | –
COc1ccc(/C=C/c2cc(Cl)c3c(OC)c(OC)c(OC)cc3n2)cc1 [Compound 9d, E-4-Chloro-5,6,7-trimethoxy-2-(4-methoxystyryl)quinoline] | 39.9 ± 3.74 | 42.8 ± 3.48 | 96.2 ± 5.38 | 33.8 ± 3.48 | 44.1 ± 3.57 | – | –
COc1ccc(/C=C/c2cc(Cl)c3c(OC)c(OC)c(OC)cc3n2)cc1OC [Compound 9e, E-4-Chloro-5,6,7-trimethoxy-2-(3,4-dimethoxystyryl)quinoline] | > 100 | > 100 | > 100 | > 100 | > 100 | 122 to 124 | –
COc1cc(/C=C/c2cc(Cl)c3c(OC)c(OC)c(OC)cc3n2)cc(OC)c1OC [Compound 9f, E-4-Chloro-5,6,7-trimethoxy-2-(3,4,5-trimethoxystyryl)quinoline] | 47.9 ± 4.25 | > 100 | > 100 | 11.7 ± 2.63 | 28 ± 2.64 | 163 to 165 | –
COc1cc2nc(/C=C/c3ccc([N+](=O)[O-])cc3)cc(Cl)c2c(OC)c1OC [Compound 9g, E-4-Chloro-5,6,7-trimethoxy-2-(4-nitrostyryl)quinoline] | > 100 | > 100 | > 100 | > 100 | > 100 | 162 to 164 | –
